In this test the target is C-X-C chemokine receptor type 6 (Homo sapiens) (UniProt O00574). Kind of test: potency against CXCR6 with APJ panel – cell-based, beta-arrestin, DiscoveRx, uHTS hits, dose response (AID 624129). Conditions: CXCR6 beta-arrestin (DiscoveRx) antagonist cell assay; for outcome: CXCR6, dose range 1.
The mark [1] stands for this setting: CXCR6, dose range 1, mean IC50 across replicates.
Where [2] appears, read: CXCR6, run 2, dose range 1, at 79 µM (top of the series).

The structures appear in SMILES notation. Calls of active or inactive are those of the source. The rule behind the calls is not given here. A value given as a limit tells only on which side of the number the result lay.

Sequence of C-X-C chemokine receptor type 6 (Homo sapiens) (O00574 whole entry, looked up): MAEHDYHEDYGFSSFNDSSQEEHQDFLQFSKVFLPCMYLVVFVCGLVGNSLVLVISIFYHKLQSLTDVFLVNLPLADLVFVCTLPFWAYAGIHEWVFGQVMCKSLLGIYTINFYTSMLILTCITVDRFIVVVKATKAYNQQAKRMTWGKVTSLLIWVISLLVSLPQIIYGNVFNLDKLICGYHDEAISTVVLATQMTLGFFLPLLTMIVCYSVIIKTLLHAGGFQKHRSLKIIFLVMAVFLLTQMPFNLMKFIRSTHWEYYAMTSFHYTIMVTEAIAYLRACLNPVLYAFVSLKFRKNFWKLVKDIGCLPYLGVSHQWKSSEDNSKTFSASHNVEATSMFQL

Turning to `Cc1ccc(O)c(C(=O)CC(=O)c2ccc(Cl)cc2)c1`, the outcome was inactive. The concentration for half-maximal inhibition (IC50) (commonly the midpoint of a concentration-inhibition curve) under setting [1] came to 13.7 µM. This compound showed an IC50 (CXCR6, run 1, dose range 2) of 10.8 µM. For the same compound, the inhibition (usually the relative decrease from the control value, in per cent) under setting [2] came to 91.8%. The same compound yielded an IC50 (CXCR6, run 2, dose range 2) of 16.5 µM.
On the same counts, the results for `CCCNC(=O)c1nnsc1S(=O)c1ccc(Cl)cc1` (stereo not given) are “inactive”, 11.7 µM, 11.8 µM, 112% and 11.7 µM.
Regarding `CC1(C)CC[C@]2(C(=O)n3ccnc3)CC[C@]3(C)[C@H](C(=O)C=C4[C@@]5(C)C=C(C#N)C(=O)C(C)(C)[C@@H]5CC[C@]43C)[C@@H]2C1`, the outcome was inactive. Under setting [1], this compound showed an IC50 of 16.4 µM. For the same compound, where the note is “CXCR6, run 1, dose range 2”, the IC50 amounted to 14.4 µM. The inhibition under setting [2] came out at 105%. Besides, the IC50 (CXCR6, run 2, dose range 2) came out at 18.4 µM.
On the same counts, the results for `Cc1cc(O)ccc1NC(=S)NC(=O)c1cncc(Br)c1` are “inactive”, 16.3 µM, 17.3 µM, 68.1% and 15.4 µM.
On the same counts, the results for `O=C(NC(=S)N(CCc1ccccc1)CCc1ccccc1)c1ccco1` are “inactive”, 26 µM, 8.84 µM, 68.8% and 43.2 µM.
On to `Cc1cccc(CS(=O)(=O)c2ncc(Cl)c(C(=O)NCc3ccccc3)n2)c1`, for which the result was inactive. Further, the IC50 under setting [1] amounted to 13.1 µM. For the same compound, the half-maximal inhibitory concentration (IC50) (CXCR6, run 1, dose range 2) turned out to be 11.5 µM. Besides, the inhibition under setting [2] stood at 112%. Under “CXCR6, run 2, dose range 2”, this compound returned an IC50 of 14.7 µM.
Consider `O=C(COC(=O)C1CCN(S(=O)(=O)c2cccs2)CC1)c1cc2ccccc2o1`, for which the outcome was inactive. Under setting [1], the IC50 worked out at 16.8 µM. The compound also showed an IC50 (CXCR6, run 1, dose range 2) of 16.8 µM. The inhibition under setting [2] stood at 27.4%. The IC50 (CXCR6, run 2, dose range 2) was above 79 µM.
For `CCCC(=O)OCCNc1cc(SCc2ccco2)c2nonc2c1[N+](=O)[O-]`, the result was inactive. Moreover, the IC50 under setting [1] amounted to 12.2 µM. The compound further registered an IC50 (CXCR6, run 1, dose range 2) of 11.3 µM. Further, the inhibition under setting [2] came out at 103%. Where the note is “CXCR6, run 2, dose range 2”, this compound displayed an IC50 of 13.1 µM.
Taken in the same sequence, the figures for `C=CCn1c(=O)c2c(nc3n2CC(C)CN3c2cccc(OC)c2)n(C)c1=O` (stereo not given) were “inactive”, 19.5 µM, 18.3 µM, 66.1% and 20.7 µM.
`CCN(CC(=O)NC(C)(C)C)Cc1nc2c(Br)cc(Br)cc2c(=O)[nH]1`: the outcome was inactive. Under setting [1], this compound came in with an IC50 of 13.1 µM. In addition, the IC50 (CXCR6, run 1, dose range 2) was 12.4 µM. In addition, the inhibition (CXCR6, run 2, dose range 1, at 39.5 µM (top of the series)) came out at 74.7%. The IC50 (CXCR6, run 2, dose range 2) was 13.8 µM.
On to `CC(Oc1cccc(Br)c1)C(=O)NNC(=O)c1ccccn1` (stereo not given), for which the result was inactive. The compound also registered an IC50 under setting [1] of 14.4 µM. Besides, the IC50 (CXCR6, run 1, dose range 2) came out at 12 µM. The inhibition under setting [2] worked out at 105%. This compound returned an IC50 (CXCR6, run 2, dose range 2) of 16.9 µM.
Taken in the same sequence, the figures for `Fc1ccc(NC(=S)NNc2ncc(C(F)(F)F)cc2Cl)c(F)c1` were “inactive”, 11.6 µM, 11.2 µM, 109% and 12 µM.
Taken in the same sequence, the figures for `C=CCN(CC=C)C(=S)NC(=O)c1ccc(C)c(Br)c1` were “inactive”, 12.6 µM, 11.7 µM, 65.4% and 13.4 µM.
Taken in the same sequence, the figures for `CCOC(=O)c1cc([N+](=O)[O-])c([N+](=O)[O-])cc1NC(C)=O` were “inactive”, 15.1 µM, 14.8 µM, 110% and 15.5 µM.
With `C/C(=N\NC(=S)NCCc1ccccc1)c1ccc(Cl)cc1Cl`, the outcome was inactive. Further, the IC50 under setting [1] is 11.8 µM. The compound further registered an IC50 (CXCR6, run 1, dose range 2) of 12.4 µM. The inhibition under setting [2] came to 39.5%. The same compound returned an IC50 (CXCR6, run 2, dose range 2) of 11.1 µM.
Taken in the same sequence, the figures for `CCn1c(=O)cc(NC2=NCC(C)CN2c2cccc(Cl)c2)n(C)c1=O` (stereo not given) were “inactive”, 19.1 µM, 19.3 µM, 79% and 19 µM.
On the same counts, the results for `CCC(C)c1ccc(O)c(NC(=S)NC(=O)c2cccs2)c1` (stereo not given) are “inactive”, 11.8 µM, 15.4 µM, 82.8% and 8.27 µM.
Taken in the same sequence, the figures for `O=C1c2cccc3c([N+](=O)[O-])ccc(c23)C(=O)N1c1ccccn1` were “inactive”, 24.3 µM, 24.3 µM, 101% and 24.2 µM.

The values are drawn from PubChem BioAssay AID624129 (Sanford-Burnham Center for Chemical Genomics, 2012).
